Data reported in patent US20110060021A1 (priority 2009, published 2011).

What was measured:
[1] = system: recombinant human HDAC1-4 and HDAC6-9; assay: Histone deacetylase inhibition, two-step fluorogenic assay; type: biochemical; settings: reduced form of the compound
Procedure: TCEP, tris(2-carboxyethyl)phosphine hydrocloride used as a reducing agent.
The experiments included HDACs falling in human class I (HDACs 1, 2, 3 and 8), as well as human class II (HDACs 4, 6, 7 and 9), and the activities were determined in a two-step fluorogenic assay by the method described in (Wegener et al. Analytical biochemistry (2003) 321:202-208). All HDAC dose-response curves were bundled for each compound individually in the native/oxidized and the reduced forms. The activity of each enzyme was normalized separately. For determination of the inhibitory effect, IC50 values (in μM concentrations) were obtained through a non-linear four-parameter fit.

NCI-60 cancer cell lines [2] = assay: NCI-60 single-dose assay; type: cell-based, human; settings: single dose 10 μM
[3] = system: breast cancer cell line (BT-549); assay: NCI-60 assay, BT-549 cell line; type: cell-based, human
NCI-60 cancer cell lines [4] = settings: for number of cancer cell lines completely killed / number of cancer cell lines whose growth was totally inhibited / TGI50, median concentration for total growth inhibition / GI50 / CC50: five-dose assay; for number of cancer cell lines completely killed: at median LC50 or lower; for number of cancer cell lines whose growth was totally inhibited: at median TGI50 or lower; for TGI50, median concentration for total growth inhibition: 29 (A) / 28 (B) cell lines; for GI50: read-out: GI50, median concentration, all but three cancer cell lines (HCT-15, NCI/ADR-RES, CAKI-1); for CC50: read-out: LC50, median concentration, 17 (A) / 20 (B) cell lines completely killed
[5] = system: CNS cancer cell line (U251); assay: NCI-60 assay, U251 cell line; type: cell-based, human

Row | SMILES | HDAC inhibition ranking (order of inhibition) [1] | inhibitory activity across the 60 cancer cell lines (NCI-60 cancer cell lines [2]) | number of cell lines inhibited at the mean growth percent or more (NCI-60 cancer cell lines [2]) [cell lines] | sensitivity of BT-549 breast cancer cell line [3] | cancer cell lines inhibited in five-dose assay (NCI-60 cancer cell lines [4]; exceptions: HCT-15 colon, NCI/ADR-RES ovarian, CAKI-1 renal) | number of cancer cell lines completely killed (NCI-60 cancer cell lines [4]) [cancer cell lines] | number of cancer cell lines whose growth was totally inhibited (NCI-60 cancer cell lines [4]) [cancer cell lines] | TGI50, median concentration for total growth inhibition (NCI-60 cancer cell lines [4]) [nM] | GI50 (NCI-60 cancer cell lines [4]) [nM] | CC50 (NCI-60 cancer cell lines [4]) [nM] | relative potency (all parameters) (NCI-60 cancer cell lines [4]; thailandepsin A vs thailandepsin B) | sensitivity of U251 CNS cancer cell line [5]
1 | CC=C1NC(=O)C(CS)NC(=O)C(C(C)C)NC(=O)CC(C=CCCS)OC(=O)C(C(C)C)NC1=O (stereo not drawn) [reduced form of FK228] | HDAC2≧HDAC3≧HDAC1>HDAC8>HDAC4≧HDAC6>HDAC9≧HDAC7 |  |  |  |  |  |  |  |  |  |  | 
2 | CC[C@H](C)[C@H]1NC(=O)[C@H]2CSSCC/C=C/[C@H](CC(=O)N[C@H](CCSC)C(=O)N2)OC(=O)C[C@@H]1O [thailandepsin A] |  | consistently inhibitory to most but not all 60 cancer cell lines | 28 | very sensitive | inhibitory to all but three cancer cell lines | 17 | 29 | ≤ 125.9 | ≤ 5.6 | ≤ 3890 | twice as potent as thailandepsin B | very sensitive
3 | CCCC[C@H]1NC(=O)C[C@H]2/C=C/CCSSC[C@@H](NC1=O)C(=O)N[C@H]([C@@H](C)CC)[C@@H](O)CC(=O)O2 [thailandepsin B] |  | consistently inhibitory to most but not all 60 cancer cell lines | 30 | very sensitive |  | 20 | 28 | ≤ 256.4 | ≤ 11.7 | ≤ 6920 |  | very sensitive
